The values below come from ChEMBL document CHEMBL1135516, “Three-dimensional quantitative structure-activity relationship analysis of ligand binding to human sequence antidigoxin monoclonal antibodies using comparative molecular field analysis” (J Med Chem, 2002).

The source made the active and inactive calls. No cut-off for these calls is given here.

For experiment [1], the system named is Monoclonal antibody (mAb). Nature of the experiment: Binding affinity against human monoclonal antibody (mAb)-11E6.
The test system of experiment [2] is Monoclonal antibody (mAb). Nature of the experiment: Binding affinity against human monoclonal antibody (mAb)-1B3.
Experiment [3] has as its system Monoclonal antibody (mAb). In words: Binding affinity against human monoclonal antibody (mAb)-5C2.
Experiment [4] concerns Monoclonal antibody (mAb). Nature of the experiment: Binding affinity against human monoclonal antibody (mAb)-7F2.

Consider `CC(=O)O[C@H]1C[C@H](O[C@H]2[C@@H](O)C[C@H](O[C@H]3[C@@H](O)C[C@H](O[C@H]4CC[C@@]5(C)[C@H](CC[C@@H]6[C@@H]5C[C@@H](O)[C@]5(C)[C@@H](C7=CC(=O)OC7)CC[C@]65O)C4)O[C@@H]3C)O[C@@H]2C)O[C@H](C)[C@H]1O[C@@H]1O[C@H](CO)[C@@H](O)[C@H](O)[C@H]1O`, for which the IC50 ratio is 1.6 in experiment [1], 1.6 in experiment [2], 1.1 in experiment [3] and 1.4 in experiment [4].

Turning to `C[C@]12CC[C@H](O)CC1CC[C@@H]1[C@@H]2CC[C@]2(C)[C@@H](C3=CC(=O)OC3)CC[C@]12O` (single isomer, unassigned), the IC50 ratio amounted to 6.7 in experiment [1], 4900 in experiment [2], 3.6 in experiment [3] and 4.1 in experiment [4].

Regarding `CC1CC(O[C@H]2CC[C@@]3(C)[C@H](CC[C@@H]4[C@@H]3CC[C@]3(C)[C@@H](C5=CC(=O)OC5)CC[C@]43O)C2)CC(O)C1O` (some centres undefined), the IC50 ratio in experiment [1] amounted to 25; in experiment [2], 36; in experiment [3], 47; in experiment [4] it was 29.

With `C[C@]12C=CC(=O)C=C1CC[C@@H]1[C@@H]2C(=O)C[C@@]2(C)[C@H]1CC[C@]2(O)C(=O)CO`, the IC50 ratio result was “No inhibition” in experiment [1], “No inhibition” in experiment [2], 3400 in experiment [3] and “No inhibition” in experiment [4].

On to `C[C@]12C[C@H](O)[C@H]3[C@@H](CCC4=CC(=O)CC[C@@]43C)[C@@H]1CC[C@@H]2C(=O)CO`, for which the IC50 ratio worked out at 970 in experiment [1], 14000 in experiment [2], 420 in experiment [3] and 390 in experiment [4].

Take `C[C@H]1O[C@@H](O[C@@H]2CC[C@@]3(O)CC[C@@H]4[C@H](CC[C@]5(C)[C@@H](C6=CC(=O)OC6)CC[C@]45O)[C@@]3(C=O)C2)C[C@H](O)[C@@H]1O`: the IC50 ratio in experiment [1] worked out at 2500; in experiment [2] it was 6200; in experiment [3], 3000; in experiment [4], 2100.

In the case of `CC(=O)O[C@]1(C(C)=O)CC[C@H]2[C@@H]3C=C(Cl)C4=CC(=O)CC[C@]4(C)[C@H]3CC[C@@]21C`, the IC50 ratio result in experiment [2] and in experiment [4] was “No inhibition” throughout.

Take `CC(=O)O[C@H]1C[C@H](O[C@H]2[C@@H](O)C[C@H](O[C@H]3[C@@H](O)C[C@H](O[C@H]4CC[C@@]5(C)[C@H](CC[C@@H]6[C@@H]5CC[C@]5(C)[C@@H](C7=CC(=O)OC7)CC[C@]65O)C4)O[C@@H]3C)O[C@@H]2C)O[C@H](C)[C@H]1O`: the IC50 ratio in experiment [1] was 20; in experiment [2], 3.9; in experiment [3] it was 48; in experiment [4], 25.

Regarding `CC(=O)O[C@H]1[C@H]2O[C@]23[C@@H]2CC[C@@H]4C[C@@H](O)CC[C@]4(C)[C@H]2CC[C@]3(C)[C@H]1c1ccc(=O)oc1`, the IC50 ratio in experiment [1] stood at 800; in experiment [2], 98000; in experiment [3] it was 570; in experiment [4] it was 1700.

On to `C[C@]12CC[C@@H](O)C[C@@H]1CC[C@@H]1[C@@H]2CC[C@]2(C)C(=O)CC[C@@H]12`, for which the results for the IC50 ratio in experiment [1] and in experiment [4] were 1800 and 1300, respectively. The IC50 ratio entry in experiment [2] and in experiment [3] was “inactive” each time.

With `CC(=O)OCC(=O)[C@@]1(O)CC[C@H]2[C@@H]3CCC4=CC(=O)C=C[C@]4(C)[C@H]3[C@@H](O)C[C@@]21C`, the values for the IC50 ratio result in experiment [2] and in experiment [4] were “No inhibition” and 12000, respectively.

Take `CC(=O)O[C@H]1C[C@H](O[C@H]2CC[C@@]3(C)[C@H](CC[C@@H]4[C@@H]3C[C@@H](O)[C@]3(C)C(C5=CC(=O)OC5)CC[C@]43O)C2)O[C@H](C)[C@H]1O[C@H]1C[C@H](O)[C@H](O[C@H]2C[C@H](O)[C@H](O)[C@@H](C)O2)[C@@H](C)O1` (some centres undefined): the IC50 ratio in experiment [1] turned out to be 1.5; in experiment [2], 0.9; in experiment [3], 0.9; in experiment [4], 1.

`C[C@]12CC[C@H]3[C@@H](CCC4=CC(=O)CC[C@@]43C)[C@@H]1CC[C@@H]2O`: the values for the IC50 ratio in experiment [1], in experiment [3] and in experiment [4] were 110, 120 and 100, respectively. Further, in experiment [2], the IC50 ratio result is “inactive”.

As for `C[C@H]1O[C@@H](O[C@H]2[C@@H](O)C[C@H](O[C@H]3CC[C@@]4(C)[C@H](CC[C@@H]5[C@@H]4CC[C@]4(C)[C@@H](C6=CC(=O)OC6)CC[C@]54O)C3)O[C@@H]2C)C[C@H](O)[C@@H]1O`, the IC50 ratio is 11 in experiment [1], 4.9 in experiment [2], 14 in experiment [3] and 14 in experiment [4].

Turning to `C[C@]12CCC(=O)C=C1CC[C@@H]1[C@@H]2[C@@H](O)C[C@]2(C=O)[C@@H](C(=O)CO)CC[C@@H]12`, the IC50 ratio in experiment [1] was 760; in experiment [3], 550; in experiment [4], 540. In addition, in experiment [2], the IC50 ratio entry was “inactive”.

`C[C@]12CCC(=O)C=C1CC[C@@H]1[C@@H]2[C@@H](O)C[C@@]2(C)[C@H]1CC[C@]2(O)C(=O)CO`: the IC50 ratio in experiment [1] was 3700; in experiment [2], “No inhibition”; in experiment [3] it was 650; in experiment [4], 1100.

Regarding `CC(=O)O[C@]1(C(C)=O)CC[C@H]2[C@@H]3CCC4=C/C(=N/OCC(=O)O)CC[C@]4(C)[C@H]3CC[C@@]21C`, the IC50 ratio entry in experiment [2] and in experiment [4] was “No inhibition” throughout.

Turning to `C[C@H]1O[C@@H](O[C@H]2[C@@H](O)C[C@H](O[C@H]3[C@@H](O)C[C@H](O[C@H]4CC[C@@]5(C)[C@H](CC[C@@H]6[C@@H]5CC[C@]5(C)[C@H](C7COC(=O)C7)CC[C@]65O)C4)O[C@@H]3C)O[C@@H]2C)C[C@H](O)[C@@H]1O` (some centres undefined), the IC50 ratio in experiment [2] amounted to 340; in experiment [4] it was 1800.

In the case of `CC(C)CCC[C@@H](C)[C@H]1CC[C@H]2[C@@H]3CC=C4C[C@@H](O)CC[C@]4(C)[C@H]3CC[C@]12C`, the IC50 ratio result in experiment [1], in experiment [2], in experiment [3] and in experiment [4] was “inactive” throughout.

As for `CO[C@H]1C(O)[C@H](O[C@H]2CC[C@@]3(C)[C@H](CC[C@@H]4[C@@H]3CC[C@]3(C)[C@@H](C5=CC(=O)OC5)CC[C@]43O)C2)O[C@@H](C)[C@@H]1O[C@@H]1O[C@H](CO[C@@H]2O[C@H](CO)[C@@H](O)[C@H](O)[C@H]2O)[C@@H](O)[C@H](O)[C@H]1O` (some centres undefined), the IC50 ratio turned out to be 18 in experiment [1], 97 in experiment [2], 7.6 in experiment [3] and 8.6 in experiment [4].

`C[C@H]1O[C@@H](O[C@H]2[C@@H](O)C[C@H](O[C@H]3CC[C@@]4(C)[C@H](CC[C@@H]5[C@@H]4C[C@@H](O)[C@]4(C)[C@@H](C6=CC(=O)OC6)CC[C@]54O)C3)O[C@@H]2C)C[C@H](O)[C@@H]1O`: the IC50 ratio in experiment [1] was 0.9; in experiment [2], 1.6; in experiment [3], 1.3; in experiment [4], 1.

With `C[C@]12CC[C@H](O)CC1=CC[C@@H]1[C@@H]2CC[C@]2(C)C(=O)CC[C@@H]12`, the IC50 ratio entry in experiment [2] was “No inhibition”.

Consider `C[C@]12C=CC(=O)C=C1CC[C@@H]1[C@@H]2[C@@H](O)C[C@@]2(C)[C@H]1CC[C@]2(O)C(=O)COC(=O)CCC(=O)O`, for which the figures for the IC50 ratio in experiment [2] and in experiment [4] were 160000 and 3400, respectively.
